The text below walks through data of patent publication US6596863B2, “Medical composition containing nitroetheneamine Derivative or salt there of as active constituent” (Ishihara Sangyo Kaisha, Ltd., priority 1998, dated 2003).

Data set [1] deals with T1, human MMP-9 (gelatinase B) (Homo sapiens, UniProt P14780).
T1 construct: endogenous in cells; host or cells: HT1080 human fibrosarcoma cells (ATCC CCL-121), PMA-stimulated; enzyme purified from the culture supernatant
The data set is described as follows: Inhibition activity against human MMP-9 (gelatinase B), fluorescent peptide substrate. Format: biochemical. The method, boiled down: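 MMP-9 purified from PMA-stimulated (10 ng/ml) HT1080 supernatant, or commercial enzyme (0.0125-0.025 unit/ml or 0.2 μg/ml final), incubated with compound and 10 μM final Mca-Pro-Leu-Gly-Leu-Dpa-Ala-Arg-NH2 fluorescent substrate at 37 °C for 3 h in the dark. Precursor enzyme activated with APMA.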

Setting [2] is: compounds of the formula (I), 1st measurement, read-out: MMP-9 inhibition activities IC50, 1st.
[3] abbreviates: compounds of the formula (I), 2nd measurement, read-out: MMP-9 inhibition activities IC50, 2nd.
[4] abbreviates: compounds of the formula (I), average of 1st and 2nd (or single measurement), read-out: MMP-9 inhibition activities IC50, Average.

Where two headings read alike, the source gives them in different places.

T1 sequence (P14780 107-707 limits assumed): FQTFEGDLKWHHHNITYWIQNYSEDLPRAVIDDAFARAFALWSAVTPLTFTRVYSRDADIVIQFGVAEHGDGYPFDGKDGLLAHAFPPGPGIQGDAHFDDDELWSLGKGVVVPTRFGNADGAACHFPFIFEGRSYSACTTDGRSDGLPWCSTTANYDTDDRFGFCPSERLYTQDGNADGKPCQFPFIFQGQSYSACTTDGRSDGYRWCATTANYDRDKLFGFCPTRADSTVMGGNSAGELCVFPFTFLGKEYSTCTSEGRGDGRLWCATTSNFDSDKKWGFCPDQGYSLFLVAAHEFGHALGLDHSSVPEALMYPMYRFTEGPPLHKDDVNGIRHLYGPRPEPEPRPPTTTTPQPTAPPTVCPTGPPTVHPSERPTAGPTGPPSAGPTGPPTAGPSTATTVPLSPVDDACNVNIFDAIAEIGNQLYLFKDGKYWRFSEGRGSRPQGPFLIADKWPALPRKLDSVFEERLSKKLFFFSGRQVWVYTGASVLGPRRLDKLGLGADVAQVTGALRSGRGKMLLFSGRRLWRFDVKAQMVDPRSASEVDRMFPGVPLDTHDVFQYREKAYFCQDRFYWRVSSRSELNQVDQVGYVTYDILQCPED

`NNC(=C[N+](=O)[O-])NC1CCCCC1` [compound 86]: the melting point (usually the temperature of the solid-liquid transition) is 196 °C (dec.). In addition, the IC50 (as a rule, the concentration needed to halve the response being measured) in data set [1] (setting [2]) was found to be 41.8 µM. The IC50 in data set [1] (setting [3]) stood at 41.5 µM. Moreover, the IC50 in data set [1] (setting [4]) was found to be 41.7 µM.

`Cc1ccc(NC(=C[N+](=O)[O-])NN)cc1` [compound 48]: the melting point is 191 °C (dec.). The IC50 in data set [1] (setting [2]) worked out at 20.6 µM. The IC50 in data set [1] (setting [3]) was determined as 18.2 µM. In data set [1] (setting [4]), the IC50 came to 19.4 µM.

`CSC(=C[N+](=O)[O-])Nc1ccc2cn[nH]c2c1` [Intermediate 55] came in with a melting point of 214 to 216 °C. The IC50 in data set [1] (intermediates, compounds of the formula (IV), 1st measurement, read-out: MMP-9 inhibition activities IC50, 1st) worked out at 32.5 µM. The IC50 in data set [1] (intermediates, compounds of the formula (IV), 2nd measurement, read-out: MMP-9 inhibition activities IC50, 2nd) worked out at 25.5 µM. Moreover, the IC50 in data set [1] (intermediates, compounds of the formula (IV), average of 1st and 2nd (or single measurement), read-out: MMP-9 inhibition activities IC50, Average) was 29 µM.

`CNC(=C[N+](=O)[O-])NNc1cc(C(F)(F)F)cc(OCCCc2ccccn2)n1` [compound 118]: the melting point was 169 °C (dec.). For the same compound, in data set [1] (setting [2]), the IC50 worked out at 32.3 µM. Besides, the IC50 in data set [1] (setting [3]) stood at 35.1 µM. Moreover, the IC50 in data set [1] (setting [4]) turned out to be 33.7 µM.

As to `CNC(=C[N+](=O)[O-])NNc1ncc(C(F)(F)F)cc1[N+](=O)[O-]` [compound 96], the melting point was 165 to 167 °C (dec.). In addition, the IC50 in data set [1] (setting [2]) turned out to be 24.5 µM. Further, the IC50 in data set [1] (setting [3]) was 21.3 µM. For the same compound, in data set [1] (setting [4]), the IC50 is 22.9 µM.

Turning to `CNC(=C[N+](=O)[O-])NN(C)c1cccc(C(F)(F)F)n1` [compound 39], the melting point was 191 to 192 °C (dec.). In addition, the IC50 in data set [1] (setting [2]) was 16.1 µM. Further, the half-inhibitory concentration (IC50) in data set [1] (setting [3]) amounted to 29.2 µM. For the same compound, the IC50 in data set [1] (setting [4]) came to 22.7 µM.

Take `CNC(=C[N+](=O)[O-])NNc1cc(C(F)(F)F)cc(OCCOC(C)(C)C)n1` [compound 193]: the melting point is 170 °C (dec.). Further, the IC50 in data set [1] (setting [2]) amounted to 10.5 µM. Further, the IC50 in data set [1] (setting [4]) came out at 10.5 µM.

For `COCCNC(=C[N+](=O)[O-])NNc1cc(C(F)(F)F)cc(Cl)n1` [compound 160], the melting point is 175 to 178 °C (dec.). The IC50 in data set [1] (setting [2]) was found to be 9.4 µM. Further, in data set [1] (setting [4]), the IC50 turned out to be 9.4 µM.

`CNC(=C[N+](=O)[O-])NNc1ccc(OC(F)(F)F)cc1` [compound 95]: the melting point is 176 to 177 °C (dec.). The IC50 in data set [1] (setting [2]) came to 26.7 µM. For the same compound, the IC50 in data set [1] (setting [3]) was 27 µM. The IC50 in data set [1] (setting [4]) is 26.9 µM.

On to `CNC(=C[N+](=O)[O-])NNc1cccc(C)c1` [Compound No. 15], for which the melting point was 189 °C (dec.). Also, the IC50 in data set [1] (setting [2]) was determined as 46.8 µM. Moreover, the IC50 in data set [1] (setting [3]) turned out to be 52.7 µM. Moreover, the IC50 in data set [1] (setting [4]) came out at 49.8 µM.

As for `NNC(=C[N+](=O)[O-])NC1Cc2ccccc2C1` [compound 112], the melting point is 193 to 197 °C (dec.). The IC50 in data set [1] (setting [2]) is 38.2 µM. Further, the half-inhibitory concentration (IC50) in data set [1] (setting [3]) amounted to 30.9 µM. Moreover, the IC50 in data set [1] (setting [4]) came to 34.6 µM.

Take `CNC(=C[N+](=O)[O-])NNc1cc(C(F)(F)F)cc(OCc2ccccc2Cl)n1` [compound 174]: the melting point was 162 °C (dec.). Moreover, the IC50 in data set [1] (setting [2]) amounted to 9 µM. In addition, the IC50 in data set [1] (setting [4]) is 9 µM.

Turning to `CNC(=C[N+](=O)[O-])NNc1cc(C(F)(F)F)cc(OCC2CC2)n1` [compound 184], the melting point was 167 °C (dec.). The IC50 in data set [1] (setting [2]) was 20 µM. The IC50 in data set [1] (setting [3]) is 10.6 µM. For the same compound, the IC50 in data set [1] (setting [4]) came out at 15.3 µM.

`CCNC(=C[N+](=O)[O-])NN` [compound 117] had a melting point of 93.5 to 98.5 °C. In data set [1] (setting [2]), the IC50 was determined as 30 µM. For the same compound, the IC50 in data set [1] (setting [3]) stood at 39.3 µM. Further, the IC50 in data set [1] (setting [4]) was determined as 34.7 µM.

For the compound `CNC(=C[N+](=O)[O-])NN=C(C)OC` [compound 26], the melting point is 159 °C (dec.). Also, in data set [1] (setting [2]), the IC50 worked out at 31.9 µM. In addition, in data set [1] (setting [3]), the IC50 is 31.5 µM. The IC50 in data set [1] (setting [4]) was 31.7 µM.

Regarding `CNC(=C[N+](=O)[O-])NNc1ccc(Cl)cn1` [compound 172], the melting point is 206 °C (dec.). For the same compound, in data set [1] (setting [2]), the IC50 worked out at 0.82 µM. For the same compound, the IC50 in data set [1] (setting [3]) came out at 1.1 µM. The IC50 in data set [1] (setting [4]) is 0.96 µM.

Consider `COc1ccc(NC(=C[N+](=O)[O-])NN)cc1OC` [compound 56], for which the melting point came to 148 °C. For the same compound, the IC50 in data set [1] (setting [2]) stood at 39.9 µM. Also, the IC50 in data set [1] (setting [3]) was 33.5 µM. For the same compound, the IC50 in data set [1] (setting [4]) was 36.7 µM.
